Results published in ChEMBL document CHEMBL3885881, “DrugMatrix”.

Species on record: Rattus norvegicus
Assay: DrugMatrix - Regimen: Daily Repeat
Assay type: toxicity, organism-based, Sprague-Dawley
Design: regimen Daily Repeat, gender Male, age 6-8 weeks
Details: in vivo, po, route oral GAVAGE, […]; for ABSOLUTE BASOPHIL / ABSOLUTE EOSINOPHIL / ABSOLUTE LYMPHOCYTE / ABSOLUTE MONOCYTE / ABSOLUTE SEGMENTED NEUTROPHIL / BASOPHIL / EOSINOPHIL / ERYTHROCYTE COUNT / HEMATOCRIT / HEMOGLOBIN / LEUKOCYTE COUNT / LYMPHOCYTE / MEAN CORPUSCULAR HEMOGLOBIN / MEAN CORPUSCULAR HEMOGLOBIN CONCENTRATION / MEAN CORPUSCULAR VOLUME / MONOCYTE / NEUTROPHIL / NUCLEATED RED BLOOD CELLS / PLATELET COUNT: tissue Blood; for ALANINE AMINOTRANSFERASE / ALBUMIN / ALKALINE PHOSPHATASE / ASPARTATE AMINOTRANSFERASE / BLOOD UREA NITROGEN / CARBON DIOXIDE / CHLORIDE / CHOLESTEROL / CREATINE PHOSPHOKINASE / CREATININE / GLUCOSE / LACTATE DEHYDROGENASE / LIPASE / PHOSPHORUS / POTASSIUM / SODIUM / TOTAL BILIRUBIN / TOTAL PROTEIN / URIC ACID: tissue Plasma
[1] = 0 mg/kg, 72 h, dose level Control, time 3 day
[2] = 0 mg/kg, 120 h, dose level Control, time 5 day
[3] = 1 mg/kg, 72 h, dose level Low, time 3 day

## CCOC(=O)C1=C(C)NC(C)=C(C(=O)OCC)C1c1ccccc1/C=C/C(=O)OC(C)(C)C [LACIDIPINE]
[1]
  ABSOLUTE BASOPHIL: 0 CELLS/uL
  ABSOLUTE EOSINOPHIL: 13.67 CELLS/uL
  ABSOLUTE LYMPHOCYTE: 10069.5 CELLS/uL
  ABSOLUTE MONOCYTE: 50 CELLS/uL
  ABSOLUTE SEGMENTED NEUTROPHIL: 516.83 CELLS/uL
  BASOPHIL: 0%
  EOSINOPHIL: 0.17%
  ERYTHROCYTE COUNT: 5.44 x10E6/uL
  HEMATOCRIT: 33.88%
  HEMOGLOBIN: 13.23 G/DL
  LEUKOCYTE COUNT: 10.65 x10E3/uL
  LYMPHOCYTE: 94.67%
  MEAN CORPUSCULAR HEMOGLOBIN: 24.37 pg
  MEAN CORPUSCULAR HEMOGLOBIN CONCENTRATION: 39.05 G/DL
  MEAN CORPUSCULAR VOLUME: 62.38 fL
  MONOCYTE: 0.67%
  NEUTROPHIL: 4.5%
  NUCLEATED RED BLOOD CELLS: 0.33 /100WBC
  PLATELET COUNT: 414.5 x10E3/uL
  ALANINE AMINOTRANSFERASE: 72 u/L
  ALBUMIN: 3.75 G/DL
  ALKALINE PHOSPHATASE: 375 u/L
  ASPARTATE AMINOTRANSFERASE: 87.5 u/L
  BLOOD UREA NITROGEN: 14 mg/dL
  CARBON DIOXIDE: 27.5 mmol/L
  CHLORIDE: 95.83 MEQ/L
  CHOLESTEROL: 68.5 mg/dL
  CREATINE PHOSPHOKINASE: 284.33 u/L
  CREATININE: 0.16 mg/dL
  GLUCOSE: 156.67 mg/dL
  LACTATE DEHYDROGENASE: 101.83 u/L
  LIPASE: 9.67 u/L
  PHOSPHORUS: 10.33 mg/dL
  POTASSIUM: 5.22 MEQ/L
  SODIUM: 137.67 MEQ/L
  TOTAL BILIRUBIN: 0.13 mg/dL
  TOTAL PROTEIN: 5.43 G/DL
  URIC ACID: 0.8 mg/dL
[2]
  ABSOLUTE BASOPHIL: 0 CELLS/uL
  ABSOLUTE EOSINOPHIL: 20.67 CELLS/uL
  ABSOLUTE LYMPHOCYTE: 11518.33 CELLS/uL
  ABSOLUTE MONOCYTE: 47 CELLS/uL
  ABSOLUTE SEGMENTED NEUTROPHIL: 614 CELLS/uL
  BASOPHIL: 0%
  EOSINOPHIL: 0.17%
  ERYTHROCYTE COUNT: 5.61 x10E6/uL
  HEMATOCRIT: 34.25%
  HEMOGLOBIN: 13.38 G/DL
  LEUKOCYTE COUNT: 12.2 x10E3/uL
  LYMPHOCYTE: 94.33%
  MEAN CORPUSCULAR HEMOGLOBIN: 23.83 pg
  MEAN CORPUSCULAR HEMOGLOBIN CONCENTRATION: 39.08 G/DL
  MEAN CORPUSCULAR VOLUME: 61.03 fL
  MONOCYTE: 0.33%
  NEUTROPHIL: 5.17%
  NUCLEATED RED BLOOD CELLS: 0 /100WBC
  PLATELET COUNT: 941.83 x10E3/uL
  ALANINE AMINOTRANSFERASE: 68.83 u/L
  ALBUMIN: 4.12 G/DL
  ALKALINE PHOSPHATASE: 492.67 u/L
  ASPARTATE AMINOTRANSFERASE: 83.33 u/L
  BLOOD UREA NITROGEN: 14 mg/dL
  CARBON DIOXIDE: 37 mmol/L
  CHLORIDE: 98.67 MEQ/L
  CHOLESTEROL: 56.5 mg/dL
  CREATINE PHOSPHOKINASE: 167.33 u/L
  CREATININE: 0.17 mg/dL
  GLUCOSE: 157.5 mg/dL
  LACTATE DEHYDROGENASE: 104.83 u/L
  LIPASE: 10 u/L
  PHOSPHORUS: 10.43 mg/dL
  POTASSIUM: 5.46 MEQ/L
  SODIUM: 143.87 MEQ/L
  TOTAL BILIRUBIN: 0.17 mg/dL
  TOTAL PROTEIN: 5.72 G/DL
  URIC ACID: 0.85 mg/dL
[3]
  ABSOLUTE BASOPHIL: 0 CELLS/uL
  ABSOLUTE EOSINOPHIL: 98 CELLS/uL
  ABSOLUTE LYMPHOCYTE: 10170.33 CELLS/uL
  ABSOLUTE MONOCYTE: 49.33 CELLS/uL
  ABSOLUTE SEGMENTED NEUTROPHIL: 815.67 CELLS/uL
  BASOPHIL: 0%
  EOSINOPHIL: 0.67%
  ERYTHROCYTE COUNT: 5.08 x10E6/uL
  HEMATOCRIT: 32.6%
  HEMOGLOBIN: 13 G/DL
  LEUKOCYTE COUNT: 11.13 x10E3/uL
  LYMPHOCYTE: 91%
  MEAN CORPUSCULAR HEMOGLOBIN: 25.63 pg
  MEAN CORPUSCULAR HEMOGLOBIN CONCENTRATION: 39.9 G/DL
  MEAN CORPUSCULAR VOLUME: 64.17 fL
  MONOCYTE: 0.67%
  NEUTROPHIL: 7.67%
  NUCLEATED RED BLOOD CELLS: 0 /100WBC
  PLATELET COUNT: 968 x10E3/uL
  ALANINE AMINOTRANSFERASE: 76 u/L
  ALBUMIN: 3.93 G/DL
  ALKALINE PHOSPHATASE: 408.67 u/L
  ASPARTATE AMINOTRANSFERASE: 89 u/L
  BLOOD UREA NITROGEN: 12.33 mg/dL
  CARBON DIOXIDE: 25 mmol/L
  CHLORIDE: 96.67 MEQ/L
  CHOLESTEROL: 78 mg/dL
  CREATINE PHOSPHOKINASE: 356.67 u/L
  CREATININE: 0.21 mg/dL
  GLUCOSE: 154.33 mg/dL
  LACTATE DEHYDROGENASE: 122.67 u/L
  LIPASE: 12 u/L
  PHOSPHORUS: 9.57 mg/dL
  POTASSIUM: 5.36 MEQ/L
  SODIUM: 139.33 MEQ/L
  TOTAL BILIRUBIN: 0.13 mg/dL
  TOTAL PROTEIN: 5.4 G/DL
  URIC ACID: 0.5 mg/dL
